Where no end group is shown, it is not given here.
How the values were obtained:
[1] = tested on: rats; experiment: Rat formalin test, suboccipital injection of peptide 20 min before formalin; type: in vivo; details: for Duration of the first peak of pain reaction / Time of pain reaction onset: Table 2, suboccipital injection
Method: Analgesic activity of newly synthesized peptides was examined in the “formalin test” which allows discovering non-narcotic type of anesthesia (Wheeler-Aceto H., Porrea F., A. Cowan. The rat paw formalin test: comparison of noxious agents. Pain, 40 (1990), 229-238).
(§1) Analgesic activity of newly synthesized peptides was examined as follows. Rats weighing 180-200 g were suboccipitally injected with the study peptide under ether anesthesia using a microdispenser in 10 μl of normal saline. Control animals were similarly injected with the equal amount of normal saline. After 20 minutes, 50 mcl of formalin solution at a dilution of 1:50 was injected into the dorsal surface of the right hind paw. The time of peptide injection and formalin dilution has been developed earlier. Each rat was used only once. The most clear behavioral indicators of pain reaction were expressed in paw tucking, licking, nibbling and jolting. Moreover, the first acute reaction to pain lasting for 6-7 min in control animals was followed by the dormant period: a rat lowered its paw, grooming behavior and nibbling was stopped. Then the reaction was repeated with expression not less than the previous one—it was the second phase of pain reaction.
(§2) The moment of paw tucking (beginning of the 1st phase of pain reaction), duration of this reaction, duration of dormancy and time of onset of the second phase of reaction—repeated paw tucking or its absence—were visually recorded in order to obtain quantitative data. Peptide was injected 20 min prior to formalin injection in case of suboccipital method of peptide injection and 30 min prior to formalin injection in case of intranasal method.

[2] = tested on: rats; experiment: Rat formalin test, intranasal administration of peptide 30 min before formalin; type: in vivo; details: Table 7; for Duration of the 1st peak of pain reaction: in s
Method: as §1
as §2, with “method. […]” for “method.”

[3] = tested on: rats; details: earlier work of Kotin, Vlasov et al. 1988; cited from earlier work
[4] = earlier work; cited from earlier work
[5] = intranasal in citrate phosphate buffer, 30 min prior to formalin 2%, dose 10 μg

Row | Substance | Beginning of pain reaction [2, 5] [s] | Beginning of pain reaction ([2]; intranasal, dose 0.1 μg) [s] | Beginning of the 2nd peak ([2]; intranasal, dose 0.1 μg) [min] | Duration of the 1st peak of pain reaction ([2]; intranasal, dose 0.1 μg) | Beginning of pain reaction ([2]; intranasal, dose 1 μg) [s] | Beginning of the 2nd peak ([2]; intranasal, dose 1 μg) | Duration of the 1st peak of pain reaction ([2]; intranasal, dose 1 μg) | Beginning of the 2nd peak ([2]; intranasal, dose 10 μg) [min] | Duration of the 1st peak of pain reaction ([2]; intranasal, dose 10 μg) | further results
1 | CGRP | – | – | – | – | – | – | – | – | – | Beginning of pain reaction ([1]; Table 4, dose 1 μg): 5 (2) sec; Beginning of the 2nd peak ([1]; Table 4, dose 1 μg): 17 (2) min; Duration of the 1st peak of pain reaction ([1]; Table 4, dose 1 μg): 402 (36); Analgesic activity in the formalin test (in words) ([1]; rats): does not have analgesic activity
2 | D-Thr-D-Glu-D-Leu-D-Lys-D-His-D-Leu-NH2 [Complete retro-inversion CT16-21] | 20 ± 9 | 126 | 16.2 ± 2.6 | 249 ± 20 | 12 ± 6 | 17.4 ± 2.9 min | 300 ± 46 | 14.4 ± 1.0 | 333 ± 9 | –
3 | LHKLQT [CT16-21] | – | – | – | – | – | – | – | – | – | Analgesic activity in the rat formalin test (in words) [3]: high analgesic activity; Impact on calcium metabolism [4]: does not have immunologic activity, impact on calcium metabolism; Duration of the first peak of pain reaction ([1]; rats, dose 0.001 μg/rat): 394 (34) sec; Time of pain reaction onset ([1]; rats, dose 0.001 μg/rat): 17 (6) sec; Duration of the first peak of pain reaction ([1]; rats, dose 0.01 μg/rat): 328 (21) sec; Time of pain reaction onset ([1]; rats, dose 0.01 μg/rat): 19 (8) sec; Duration of the first peak of pain reaction ([1]; rats, dose 0.1 μg/rat): 263 (20) a < 0.001 sec; Time of pain reaction onset ([1]; rats, dose 0.1 μg/rat): 39 (8) a < 0.001 sec; Beginning of the 2nd peak ([1]; Table 3, dose 1 μg per rat): 21 ± 2 min; Duration of the 1st peak ([1]; Table 3, dose 1 μg per rat): 284 ± 20 s; Number of animals which do not have the 2nd peak of reaction ([1]; Table 3, dose 1 μg per rat): 4; Beginning of pain reaction ([1]; Table 3, dose 1 μg per rat, in s): 30 ± 6
4 | D-Thr-D-Glu-D-Leu-D-15 Lys-L-His-D-Leu-NH2 | 8 ± 3 | 48 ± 18 | 21.0 ± 5.3 | 300 ± 10 | 10 ± 2 | 12.5 ± 1.6, the min | 342 ± 26 | 15.0 ± 1.6 | 314 ± 32 | Number of rats that do not have the 2nd peak ([2]; intranasal, dose 1 μg, remark in the 2nd peak column): first one has none
